# Data as given in US20060069132A1, “Azolecarboxamide herbicides” (priority 2004, published 2006).
# Assays:
# Experiment in all cases: Test E pre-/postemergence herbicide test
# [1] = tested on: barnyardgrass; format: in vivo, Echinochloa crus-galli
# Procedure, shortened: (§1)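 Greenhouse whole-plant test: compounds formulated in a non-phytotoxic solvent mixture with surfactant were applied preemergence to planted seeds and, concurrently, postemergence to plants 2 to 18 cm tall. Response was scored visually after 12 to 14 days, 0 meaning no effect and 100 complete control.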
# [2] = tested on: Italian ryegrass; format: in vivo, Lolium multiflorum
# Procedure, shortened: as §1
# [3] = tested on: johnsongrass; format: in vivo, Sorghum halepense
# Procedure, shortened: as §1
# [4] = tested on: green foxtail; format: in vivo, Setaria viridis
# Procedure, shortened: as §1
# [5] = tested on: goosegrass; format: in vivo, Eleusine indica
# Procedure, shortened: as §1
# [6] = tested on: common groundsel; format: in vivo, Senecio vulgaris
# Procedure, shortened: as §1
# [7] = tested on: mustard; format: in vivo, Brassica nigra
# Procedure, shortened: as §1
# [8] = tested on: southern sandbur; format: in vivo, Cenchrus echinatus
# Procedure, shortened: as §1
# [9] = tested on: common purslane; format: in vivo, Portulaca oleracea; conditions: Preemergence
# Procedure, shortened: as §1
# [10] = tested on: itchgrass; format: in vivo, Rottboellia cochinchinensis
# Procedure, shortened: as §1
# [11] = tested on: field bindweed; format: in vivo, Convolvulus arvensis
# Procedure, shortened: as §1
# [12] = tested on: purple nutsedge; format: in vivo, Cyperus rotundus
# Procedure, shortened: as §1
# [13] = tested on: pitted morningglory; format: in vivo, Ipomoea lacunosa
# Procedure, shortened: as §1
# [14] = Postemergence, 500 g ai/ha, scale 0 to 100
# [15] = Postemergence, 250 g ai/ha, scale 0 to 100
# [16] = Preemergence, 62 g ai/ha, scale 0 to 100
# [17] = Preemergence, 125 g ai/ha, scale 0 to 100
# [18] = Preemergence, 250 g ai/ha, scale 0 (no effect) to 100 (complete control)
# [19] = Preemergence, 500 g ai/ha, scale 0 (no effect) to 100 (complete control)
# [20] = postemergence, 125 g ai/ha, scale 0 to 100
# [21] = 250 g ai/ha, scale 0 (no effect) to 100 (complete control)
# [22] = 500 g ai/ha, scale 0 (no effect) to 100 (complete control)
smiles,measurement,setting,value
CCNC(=O)c1ccnc(NC(=O)c2cc(C(C)(C)C)nn2CC)c1 [Compound 152],"Plant response rating, Barnyardgrass",[1]; [14],75
same,"Plant response rating, Barnyardgrass",[1]; [15],75
same,"Plant response rating, Barnyardgrass",[1]; [16],60
same,"Plant response rating, Barnyardgrass",[1]; [17],75
same,"Plant response rating, Barnyardgrass",[1]; [18],85
same,"Plant response rating, Barnyardgrass",[1]; [19],90
same,"Plant response rating, Barnyardgrass",[1]; [20],50
same,"Plant response rating, Ryegrass, Italian",[2]; [14],90
same,"Plant response rating, Ryegrass, Italian",[2]; [15],90
same,"Plant response rating, Ryegrass, Italian",[2]; [16],20
same,"Plant response rating, Ryegrass, Italian",[2]; [17],50
same,"Plant response rating, Ryegrass, Italian",[2]; [18],80
same,"Plant response rating, Ryegrass, Italian",[2]; [19],95
same,"Plant response rating, Ryegrass, Italian",[2]; [20],90
same,"Plant response rating, Johnsongrass",[3]; [14],95
same,"Plant response rating, Johnsongrass",[3]; [15],80
same,"Plant response rating, Johnsongrass",[3]; [16],30
same,"Plant response rating, Johnsongrass",[3]; [17],50
same,"Plant response rating, Johnsongrass",[3]; [18],80
same,"Plant response rating, Johnsongrass",[3]; [19],85
same,"Plant response rating, Johnsongrass",[3]; [20],70
same,"Plant response rating, Foxtail, Green",[4]; [14],85
same,"Plant response rating, Foxtail, Green",[4]; [15],85
same,"Plant response rating, Foxtail, Green",[4]; [16],20
same,"Plant response rating, Foxtail, Green",[4]; [17],70
same,"Plant response rating, Foxtail, Green",[4]; [18],85
same,"Plant response rating, Foxtail, Green",[4]; [19],100
same,"Plant response rating, Foxtail, Green",[4]; [20],40
same,"Plant response rating, Goosegrass",[5]; [14],75
same,"Plant response rating, Goosegrass",[5]; [15],60
same,"Plant response rating, Goosegrass",[5]; [16],30
same,"Plant response rating, Goosegrass",[5]; [17],70
same,"Plant response rating, Goosegrass",[5]; [18],80
same,"Plant response rating, Goosegrass",[5]; [19],90
same,"Plant response rating, Goosegrass",[5]; [20],50
same,"Plant response rating, Groundsel",[6]; [14],95
same,"Plant response rating, Groundsel",[6]; [15],95
same,"Plant response rating, Groundsel",[6]; [16],95
same,"Plant response rating, Groundsel",[6]; [17],100
same,"Plant response rating, Groundsel",[6]; [18],100
same,"Plant response rating, Groundsel",[6]; [19],100
same,"Plant response rating, Groundsel",[6]; [20],90
same,"Plant response rating, Black Mustard",[7]; [14],100
same,"Plant response rating, Black Mustard",[7]; [15],100
same,"Plant response rating, Black Mustard",[7]; [16],90
same,"Plant response rating, Black Mustard",[7]; [17],90
same,"Plant response rating, Black Mustard",[7]; [18],95
same,"Plant response rating, Black Mustard",[7]; [19],100
same,"Plant response rating, Sandbur",[8]; [14],100
same,"Plant response rating, Sandbur",[8]; [15],40
same,"Plant response rating, Sandbur",[8]; [16],10
same,"Plant response rating, Sandbur",[8]; [17],30
same,"Plant response rating, Sandbur",[8]; [18],70
same,"Plant response rating, Sandbur",[8]; [19],80
same,"Plant response rating, Sandbur",[8]; [20],20
same,"Plant response rating, Purslane","[9]; 62 g ai/ha, scale 0 to 100",0
same,"Plant response rating, Purslane","[9]; 125 g ai/ha, scale 0 to 100",0
same,"Plant response rating, Purslane",[9]; [21],50
same,"Plant response rating, Purslane",[9]; [22],100
same,"Plant response rating, Itchgrass",[10]; [14],75
same,"Plant response rating, Itchgrass",[10]; [15],75
same,"Plant response rating, Itchgrass",[10]; [16],20
same,"Plant response rating, Itchgrass",[10]; [17],60
same,"Plant response rating, Itchgrass",[10]; [18],75
same,"Plant response rating, Itchgrass",[10]; [19],80
same,"Plant response rating, Itchgrass",[10]; [20],60
same,"Plant response rating, Bindweed, Field",[11]; [14],50
same,"Plant response rating, Bindweed, Field",[11]; [15],30
same,"Plant response rating, Bindweed, Field",[11]; [16],10
same,"Plant response rating, Bindweed, Field",[11]; [17],20
same,"Plant response rating, Bindweed, Field",[11]; [18],60
same,"Plant response rating, Bindweed, Field",[11]; [19],90
same,"Plant response rating, Bindweed, Field",[11]; [20],30
same,"Plant response rating, Nutsedge, Purple",[12]; [14],75
same,"Plant response rating, Nutsedge, Purple",[12]; [15],60
same,"Plant response rating, Nutsedge, Purple",[12]; [16],0
same,"Plant response rating, Nutsedge, Purple",[12]; [17],20
same,"Plant response rating, Nutsedge, Purple",[12]; [18],50
same,"Plant response rating, Nutsedge, Purple",[12]; [19],60
same,"Plant response rating, Nutsedge, Purple",[12]; [20],30
same,"Plant response rating, Morningglory",[13]; [14],30
same,"Plant response rating, Morningglory",[13]; [15],20
same,"Plant response rating, Morningglory",[13]; [16],10
same,"Plant response rating, Morningglory",[13]; [17],10
same,"Plant response rating, Morningglory",[13]; [18],40
same,"Plant response rating, Morningglory",[13]; [19],40
same,"Plant response rating, Morningglory",[13]; [20],10
Cc1nn(C(C)(C)C)nc1C(=O)Nc1cccc(C(=O)N(C)C)c1 [Compound 391],"Plant response rating, Barnyardgrass",[1]; [16],50
same,"Plant response rating, Barnyardgrass",[1]; [17],100
same,"Plant response rating, Barnyardgrass",[1]; [18],100
same,"Plant response rating, Barnyardgrass",[1]; [19],100
same,"Plant response rating, Ryegrass, Italian",[2]; [17],80
same,"Plant response rating, Ryegrass, Italian",[2]; [18],95
same,"Plant response rating, Ryegrass, Italian",[2]; [19],95
same,"Plant response rating, Johnsongrass",[3]; [16],40
same,"Plant response rating, Johnsongrass",[3]; [17],60
same,"Plant response rating, Johnsongrass",[3]; [18],85
same,"Plant response rating, Johnsongrass",[3]; [19],100
same,"Plant response rating, Foxtail, Green",[4]; [16],60
same,"Plant response rating, Foxtail, Green",[4]; [17],80
same,"Plant response rating, Foxtail, Green",[4]; [18],95
same,"Plant response rating, Foxtail, Green",[4]; [19],100
same,"Plant response rating, Goosegrass",[5]; [16],30
same,"Plant response rating, Goosegrass",[5]; [17],80
same,"Plant response rating, Goosegrass",[5]; [18],90
same,"Plant response rating, Goosegrass",[5]; [19],95
same,"Plant response rating, Groundsel",[6]; [17],95
same,"Plant response rating, Groundsel",[6]; [18],100
same,"Plant response rating, Groundsel",[6]; [19],100
same,"Plant response rating, Black Mustard",[7]; [16],50
same,"Plant response rating, Black Mustard",[7]; [17],80
same,"Plant response rating, Black Mustard",[7]; [18],100
same,"Plant response rating, Black Mustard",[7]; [19],100
same,"Plant response rating, Sandbur",[8]; [16],10
same,"Plant response rating, Sandbur",[8]; [17],70
same,"Plant response rating, Sandbur",[8]; [18],80
same,"Plant response rating, Sandbur",[8]; [19],80
same,"Plant response rating, Purslane","[9]; 62 g ai/ha, scale 0 to 100",50
same,"Plant response rating, Purslane","[9]; 125 g ai/ha, scale 0 to 100",95
same,"Plant response rating, Purslane",[9]; [21],100
same,"Plant response rating, Purslane",[9]; [22],100
same,"Plant response rating, Itchgrass",[10]; [16],50
same,"Plant response rating, Itchgrass",[10]; [17],80
same,"Plant response rating, Itchgrass",[10]; [18],90
same,"Plant response rating, Itchgrass",[10]; [19],95
same,"Plant response rating, Bindweed, Field",[11]; [16],20
same,"Plant response rating, Bindweed, Field",[11]; [17],90
same,"Plant response rating, Bindweed, Field",[11]; [18],90
same,"Plant response rating, Bindweed, Field",[11]; [19],95
same,"Plant response rating, Nutsedge, Purple",[12]; [18],75
same,"Plant response rating, Nutsedge, Purple",[12]; [19],75
same,"Plant response rating, Morningglory",[13]; [16],10
same,"Plant response rating, Morningglory",[13]; [17],60
same,"Plant response rating, Morningglory",[13]; [18],80
same,"Plant response rating, Morningglory",[13]; [19],80
